In patent US8785439B2, “2,5,7-substituted oxazolopyrimidine derivatives” (Sanofi, priority 2010, dated 2014):

molecular target: T1, human Edg-1 receptor (Homo sapiens, UniProt P21453); experiment: GTP-γ-S assay using human Edg-1 receptors (SPA, CHO Flp-In cell membrane preparation); assay type: biochemical; conditions: test compound at 10 μM; high control 10 μM S1P regarded as 100% activation; background-corrected; triplicate
T1 construct: FLAG (N); expressed in transfected cells; membrane preparation
T1 sequence (P21453 whole entry): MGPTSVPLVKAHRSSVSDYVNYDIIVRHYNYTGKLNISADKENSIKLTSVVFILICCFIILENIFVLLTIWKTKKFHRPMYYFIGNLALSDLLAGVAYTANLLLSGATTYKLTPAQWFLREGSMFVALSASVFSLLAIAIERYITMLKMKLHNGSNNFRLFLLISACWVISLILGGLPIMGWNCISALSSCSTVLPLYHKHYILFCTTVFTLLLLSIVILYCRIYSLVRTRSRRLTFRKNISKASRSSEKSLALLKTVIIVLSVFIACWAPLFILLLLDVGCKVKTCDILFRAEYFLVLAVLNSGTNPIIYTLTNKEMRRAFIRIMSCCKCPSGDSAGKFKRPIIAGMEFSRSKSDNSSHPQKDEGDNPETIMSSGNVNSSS
In short: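 Membranes from CHO Flp-In cells stably overexpressing N-terminally FLAG-tagged human Edg-1 were used in a scintillation-proximity GTP-γ-S binding assay to measure receptor activation by compounds.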

| % Activation (Edg-1 receptor activation in percent of the activation by 10 μM S1P) [%] | SMILES |
| --- | --- |
| 58 | CCCOc1nc(NC2CCC(C)CC2)nc2oc(-c3cc(F)ccc3Cl)nc12 (centres unmarked) [Example 148, [2-(2-chloro-5-fluoro-phenyl)-7-propoxy-oxazolo[5,4-d]pyrimidin-5-yl]-(4-methyl-cyclohexyl)-amine] |

same assay, conditions: test compound at 10 μM; high control 10 μM S1P regarded as 100% activation; background-corrected; triplicate; read-out: % Activation (Edg-1 receptor activation in percent of the activation by 10 μM S1P)

| SMILES | activation at 10 µM [%] |
| --- | --- |
| CCCOc1nc(Oc2ccc(Cl)cc2Cl)nc2oc(-c3cccc(C)c3)nc12 [Example 119, 5-(2,4-dichloro-phenoxy)-7-propoxy-2-(3-methyl-phenyl)-oxazolo[5,4-d]pyrimidine] | 116 |
| CCCOc1nc(Oc2cc(Cl)ccc2Cl)nc2oc(-c3cccc(C)c3)nc12 [Example 120, 5-(2,5-dichloro-phenoxy)-7-propoxy-2-(3-methyl-phenyl)-oxazolo[5,4-d]pyrimidine] | 86 |
| CCCOc1nc(Oc2cccc(Cl)c2)nc2oc(-c3cccc(C)c3)nc12 [Example 121, 5-(3-chloro-phenoxy)-7-propoxy-2-(3-methyl-phenyl)-oxazolo[5,4-d]pyrimidine] | 113 |
| CCCOc1nc(Oc2ccc(CC)cc2)nc2oc(-c3cccc(C)c3)nc12 [Example 122, 5-(4-ethyl-phenoxy)-7-propoxy-2-(3-methyl-phenyl)-oxazolo[5,4-d]pyrimidine] | 65 |
| CCCOc1nc(Oc2cc(C)cc(C)c2C)nc2oc(-c3cccc(C)c3)nc12 [Example 123, 7-propoxy-2-(3-methyl-phenyl)-5-(2,3,5-trimethyl-phenoxy)-oxazolo[5,4-d]pyrimidine] | 65 |
| CCCOc1nc(Oc2ccccc2C(C)C)nc2oc(-c3cccc(C)c3)nc12 [Example 124, 5-(2-isopropyl-phenoxy)-7-propoxy-2-(3-methyl-phenyl)-oxazolo[5,4-d]pyrimidine] | 112 |
| CCCOc1nc(Oc2cccc(C(C)(C)C)c2)nc2oc(-c3cccc(C)c3)nc12 [Example 125, 5-(3-tert-butyl-phenoxy)-7-propoxy-2-(3-methyl-phenyl)-oxazolo[5,4-d]pyrimidine] | 61 |
| CCCOc1nc(Oc2ccccc2CCC)nc2oc(-c3cccc(C)c3)nc12 [Example 126, 7-propoxy-5-(2-propyl-phenoxy)-2-(3-methyl-phenyl)-oxazolo[5,4-d]pyrimidine] | 121 |
| CCCOc1nc(Oc2cc(F)cc(F)c2)nc2oc(-c3cccc(C)c3)nc12 [Example 127, 5-(3,5-difluoro-phenoxy)-7-propoxy-2-(3-methyl-phenyl)-oxazolo[5,4-d]pyrimidine] | 110 |
| CCCOc1nc(Oc2ccccc2C#N)nc2oc(-c3cccc(C)c3)nc12 [Example 128, 2-(7-propoxy-2-(3-methyl-phenyl)-oxazolo[5,4-d]pyrimidin-5-yloxy)-benzonitrile] | 105 |
| CCCOc1nc(Oc2ccc(F)c(C(F)(F)F)c2)nc2oc(-c3cccc(C)c3)nc12 [Example 129, 5-(4-fluoro-3-trifluoromethyl-phenoxy)-7-propoxy-2-(3-methyl-phenyl)-oxazolo[5,4-d]pyrimidine] | 85 |
| CCCOc1nc(Oc2ccc(F)c(C)c2)nc2oc(-c3cccc(C)c3)nc12 [Example 130, 5-(4-fluoro-3-methyl-phenoxy)-7-propoxy-2-(3-methyl-phenyl)-oxazolo[5,4-d]pyrimidine] | 107 |
| CCCOc1nc(Oc2cccc(N(C)C)c2)nc2oc(-c3cccc(C)c3)nc12 [Example 131, dimethyl-[3-(7-propoxy-2-(3-methyl-phenyl)-oxazolo[5,4-d]pyrimidin-5-yloxy)-phenyl]-amine] | 51 |
| CCCOc1nc(Oc2c(C)cccc2C)nc2oc(-c3cccc(C)c3)nc12 [Example 132, 5-(2,6-dimethyl-phenoxy)-7-propoxy-2-(3-methyl-phenyl)-oxazolo[5,4-d]pyrimidine] | 129 |
| CCCOc1nc(Oc2cc(C)ccc2C)nc2oc(-c3cccc(C)c3)nc12 [Example 133, 5-(2,5-dimethyl-phenoxy)-7-propoxy-2-(3-methyl-phenyl)-oxazolo[5,4-d]pyrimidine] | 92 |
| CCCOc1nc(Oc2ccc(C#N)c(F)c2)nc2oc(-c3cccc(C)c3)nc12 [Example 134, 2-fluoro-4-(7-propoxy-2-(3-methyl-phenyl)-oxazolo[5,4-d]pyrimidin-5-yloxy)-benzonitrile] | 104 |
| CCCOc1nc(Oc2ccc(C)cc2OC)nc2oc(-c3cccc(C)c3)nc12 [Example 135, 5-(2-methoxy-4-methyl-phenoxy)-7-propoxy-2-(3-methyl-phenyl)-oxazolo[5,4-d]pyrimidine] | 1 |
| CCCOc1nc(Oc2ccc(OC)c(OC)c2)nc2oc(-c3cccc(C)c3)nc12 [Example 136, 5-(3,4-dimethoxy-phenoxy)-7-propoxy-2-(3-methyl-phenyl)-oxazolo[5,4-d]pyrimidine] | 91 |
| CCCOc1nc(Oc2cc(C)ccc2Cl)nc2oc(-c3cccc(C)c3)nc12 [Example 137, 5-(2-chloro-5-methyl-phenoxy)-7-propoxy-2-(3-methyl-phenyl)-oxazolo[5,4-d]pyrimidine] | 89 |
| CCCOc1nc(Oc2cc(F)cc(Cl)c2)nc2oc(-c3cccc(C)c3)nc12 [Example 138, 5-(3-chloro-5-fluoro-phenoxy)-7-propoxy-2-(3-methyl-phenyl)-oxazolo[5,4-d]pyrimidine] | 97 |
| CCCOc1nc(Oc2ccccc2SC)nc2oc(-c3cccc(C)c3)nc12 [Example 139, 5-(2-methylsulfanyl-phenoxy)-7-propoxy-2-(3-methyl-phenyl)-oxazolo[5,4-d]pyrimidine] | 120 |

Now from value to compound:

| activation at 10 µM [%] | SMILES |
| --- | --- |
| 60 | CCCOc1nc(Oc2ccc(Cl)c(C)c2)nc2oc(-c3cccc(C)c3)nc12 [Example 140, 5-(4-chloro-3-methyl-phenoxy)-7-propoxy-2-(3-methyl-phenyl)-oxazolo[5,4-d]pyrimidine] |
| 103 | CCCOc1nc(Oc2ccccc2C(F)(F)F)nc2oc(-c3cccc(C)c3)nc12 [Example 141, 7-propoxy-2-(3-methyl-phenyl)-5-(2-trifluoromethyl-phenoxy)-oxazolo[5,4-d]pyrimidine] |
| 50 | CCCOc1nc(Oc2c(C)cc(C)cc2C)nc2oc(-c3cccc(C)c3)nc12 [Example 142, 7-propoxy-2-(3-methyl-phenyl)-5-(2,4,6-trimethyl-phenoxy)-oxazolo[5,4-d]pyrimidine] |
| 52 | CCCOc1nc(Oc2cc(C(F)(F)F)ccc2Cl)nc2oc(-c3cccc(C)c3)nc12 [Example 143, 5-(2-chloro-5-trifluoromethyl-phenoxy)-7-propoxy-2-(3-methyl-phenyl)-oxazolo[5,4-d]pyrimidine] |
| 76 | CCCOc1nc(Oc2cc(F)cc(C(F)(F)F)c2)nc2oc(-c3cccc(C)c3)nc12 [Example 144, 5-(3-fluoro-5-trifluoromethyl-phenoxy)-7-propoxy-2-(3-methyl-phenyl)-oxazolo[5,4-d]pyrimidine] |
| 82 | CCCOc1nc(Oc2ccc(C(F)(F)F)cc2Cl)nc2oc(-c3cccc(C)c3)nc12 [Example 145, 5-(2-chloro-4-trifluoromethyl-phenoxy)-7-propoxy-2-(3-methyl-phenyl)-oxazolo[5,4-d]pyrimidine] |
| 126 | CCCOc1ccccc1Oc1nc(OCCC)c2nc(-c3cccc(C)c3)oc2n1 [Example 146, 7-propoxy-5-(2-propoxy-phenoxy)-2-(3-methyl-phenyl)-oxazolo[5,4-d]pyrimidine] |
| 63 | CCCOc1nc(N[C@H]2CCC[C@H](C)C2)nc2oc(-c3cc(F)ccc3Cl)nc12 [Example 147, [2-(2-chloro-5-fluoro-phenyl)-7-propoxy-oxazolo[5,4-d]pyrimidin-5-yl]-((1S,3S)-3-methyl-cyclohexyl)-amine] |
| 70 | CCCOc1nc(NC2CCCCC2)nc2oc(-c3cc(F)ccc3Cl)nc12 [Example 149, [2-(2-chloro-5-fluoro-phenyl)-7-propoxy-oxazolo[5,4-d]pyrimidin-5-yl]-cyclohexyl-amine] |
| 92 | CCCOc1nc(Sc2ccccc2)nc2oc(-c3cc(F)ccc3Cl)nc12 [Example 150, 2-(2-chloro-5-fluoro-phenyl)-5-phenylsulfanyl-7-propoxy-oxazolo[5,4-d]pyrimidine] |
| 66 | CCCOc1nc(Sc2cc(C)oc2C)nc2oc(-c3cc(F)ccc3Cl)nc12 [Example 151, 2-(2-chloro-5-fluoro-phenyl)-5-(2,5-dimethyl-furan-3-ylsulfanyl)-7-propoxy-oxazolo[5,4-d]pyrimidine] |
| 46 | CCCOc1nc(OCC2(C)COC2)nc2oc(-c3cc(F)ccc3Cl)nc12 [Example 152, 2-(2-chloro-5-fluoro-phenyl)-5-(3-methyl-oxetan-3-ylmethoxy)-7-propoxy-oxazolo[5,4-d]pyrimidine] |
| 108 | CCCOc1nc(Sc2cc(F)ccc2C)nc2oc(-c3cc(F)ccc3Cl)nc12 [Example 153, 2-(2-chloro-5-fluoro-phenyl)-5-(5-fluoro-2-methyl-phenylsulfanyl)-7-propoxy-oxazolo[5,4-d]pyrimidine] |
| 87 | CCCOc1nc(OC2CCC(C(F)(F)F)CC2)nc2oc(-c3cc(F)ccc3Cl)nc12 (centres unmarked) [Example 154, 2-(2-chloro-5-fluoro-phenyl)-7-propoxy-5-(4-trifluoromethyl-cyclohexyloxy)-oxazolo[5,4-d]pyrimidine] |
| 62 | CCCOc1nc(Sc2ccc(C)cn2)nc2oc(-c3cc(F)ccc3Cl)nc12 [Example 155, 2-(2-chloro-5-fluoro-phenyl)-5-(5-methyl-pyridin-2-ylsulfanyl)-7-propoxy-oxazolo[5,4-d]pyrimidine] |
| 40 | CCCOc1nc(Sc2ccccc2)nc2oc(-c3ccc(Cl)c(Cl)c3)nc12 [Example 156, 2-(3,4-dichloro-phenyl)-5-phenylsulfanyl-7-propoxy-oxazolo[5,4-d]pyrimidine] |
